Source: ChEMBL document CHEMBL5053490, “Fusaricide is a Novel Iron Chelator that Induces Apoptosis through Activating Caspase-3” (J Nat Prod, 2021)
Calls of active or inactive are those of the source. The rule behind the calls is not given here.

Key:
NCI-H460 [1] = experiment: Cytotoxicity against human NCI-H460 cells assessed as reduction in cell viability incubated for 24 hrs by CCK8 assay; assay type: functional, cell-based; details: NCI-H460, 24 h
NCI-H460 [2] = experiment: Cytotoxicity against human NCI-H460 cells assessed as reduction in cell viability incubated for 48 hrs by CCK8 assay; assay type: functional, cell-based; details: NCI-H460, 48 h
NCI-H1299 [3] = experiment: Reversal of cell death in human NCI-H1299 cells at up to 40 uM measured after 24 hrs by in presence of FeCl3; assay type: functional, cell-based
HEK-293T = experiment: Cytotoxicity against human HEK293T cells up to 100 uM assessed as reduction in cell viability incubated for 48 hrs by CCK8 assay; assay type: cell-based
NCI-H460 [4] = experiment: Cytotoxicity against human NCI-H460 cells assessed as cell viability rescue at 10 uM incubated for 24 hrs in presence of Fecl3 by CCK8 assay; assay type: functional, cell-based
NCI-H460 [5] = experiment: Induction of cell cycle arrest in human NCI-H460 cells assessed as accumulation at sub G0/G1 phase at 10 uM after 12 hrs by flow cytometric analysis (reference value: 64.5%); assay type: functional
NCI-H460 [6] = experiment: Induction of cell cycle arrest in human NCI-H460 cells assessed as decrease in cyclin D1 expression at 10 uM after 24 hrs by Western blot analysis; assay type: functional, cell-based
NCI-H460 [7] = experiment: Induction of apoptosis in human NCI-H460 cells assessed as necrotic cells at 10 uM incubated for 12 hrs by AnnexinV-FITC/propidium iodide staining based flow cytometry (reference value: 1.28%); assay type: functional
NCI-H460 [8] = experiment: Induction of apoptosis in human NCI-H460 cells assessed as late apoptotic cells at 10 uM incubated for 24 hrs by AnnexinV-FITC/propidium iodide staining based flow cytometry (reference value: 7.54%); assay type: functional
NCI-H460 [9] = experiment: Induction of apoptosis in human NCI-H460 cells assessed as viable cells at 10 uM incubated for 24 hrs by AnnexinV-FITC/propidium iodide staining based flow cytometry (reference value: 90.4%); assay type: functional; details: read-out: Activity
NCI-H460 [10] = experiment: Downregulation of FTH level in human NCI-H460 cells at 10 uM by Western blot analysis; assay type: functional, cell-based
NCI-H226 [11] = experiment: Cytotoxicity against human NCI-H226 cells assessed as cell viability rescue at 10 uM incubated for 24 hrs in presence of Fecl3 by CCK8 assay; assay type: functional, cell-based
NCI-H460 [12] = experiment: Induction of apoptosis in human NCI-H460 cells assessed as late apoptotic cells at 10 uM incubated for 24 hrs in presence of FeCl3 by AnnexinV-FITC/propidium iodide staining based flow cytometry (reference value: 6.09%); assay type: functional
NCI-H460 [13] = experiment: Induction of cell cycle arrest in human NCI-H460 cells assessed as increase in p-53 expression at 10 uM after 24 hrs by Western blot analysis; assay type: functional, cell-based
NCI-H226 [14] = experiment: Reversal of cell death in human NCI-H226 cells at up to 40 uM measured after 24 hrs by in presence of FeCl3; assay type: functional, cell-based
NCI-H460 [15] = experiment: Induction of apoptosis in human NCI-H460 cells assessed as viable cells at 10 uM incubated for 48 hrs by AnnexinV-FITC/propidium iodide staining based flow cytometry (reference value: 90.4%); assay type: functional; details: read-out: Activity
NCI-H460 [16] = experiment: Induction of apoptosis in human NCI-H460 cells assessed as late apoptotic cells at 10 uM incubated for 12 hrs by AnnexinV-FITC/propidium iodide staining based flow cytometry (reference value: 7.54%); assay type: functional
MRC5 = experiment: Cytotoxicity against human MRC5 cells up to 100 uM assessed as reduction in cell viability incubated for 48 hrs by CCK8 assay; assay type: cell-based; details: mrc5, 48 h
NCI-H460 [17] = experiment: Induction of apoptosis in human NCI-H460 cells assessed as viable cells at 10 uM incubated for 36 hrs by AnnexinV-FITC/propidium iodide staining based flow cytometry (reference value: 90.4%); assay type: functional; details: read-out: Activity
NCI-H460 [18] = experiment: Induction of cell cycle arrest in human NCI-H460 cells assessed as accumulation at sub G2/M phase at 10 uM after 24 hrs by flow cytometric analysis (reference value: 9.8%); assay type: functional
NCI-H460 [19] = experiment: Induction of apoptosis in human NCI-H460 cells assessed as early apoptotic cells at 10 uM incubated for 48 hrs by AnnexinV-FITC/propidium iodide staining based flow cytometry (reference value: 0.74%); assay type: functional
NCI-H460 [20] = experiment: Induction of morphological changes in human NCI-H460 cells assessed as roughness of cell membrane at 10 uM measured after 24 hrs by Hoechst 33342 staining based assay; assay type: functional
NCI-H460 [21] = experiment: Induction of apoptosis in human NCI-H460 cells assessed as late apoptotic cells at 10 uM incubated for 36 hrs by AnnexinV-FITC/propidium iodide staining based flow cytometry (reference value: 7.54%); assay type: functional
NCI-H460 [22] = experiment: Induction of cell cycle arrest in human NCI-H460 cells assessed as accumulation at sub S phase at 10 uM after 12 hrs by flow cytometric analysis (reference value: 25.7%); assay type: functional
NCI-H460 [23] = experiment: Induction of apoptosis in human NCI-H460 cells assessed as necrotic cells at 10 uM incubated for 24 hrs by AnnexinV-FITC/propidium iodide staining based flow cytometry (reference value: 1.28%); assay type: functional
NCI-H460 [24] = experiment: Induction of apoptosis in human NCI-H460 cells assessed as necrotic cells at 10 uM incubated for 48 hrs by AnnexinV-FITC/propidium iodide staining based flow cytometry (reference value: 1.28%); assay type: functional
NCI-H460 [25] = experiment: Induction of apoptosis in human NCI-H460 cells assessed as necrotic cells at 10 uM incubated for 24 hrs in presence of FeCl3 by AnnexinV-FITC/propidium iodide staining based flow cytometry (reference value: 2.4%); assay type: functional
NCI-H460 [26] = experiment: Induction of apoptosis in human NCI-H460 cells assessed as necrotic cells at 10 uM incubated for 36 hrs by AnnexinV-FITC/propidium iodide staining based flow cytometry (reference value: 1.28%); assay type: functional
NCI-H460 [27] = experiment: Induction of morphological changes in human NCI-H460 cells assessed as chromatin condensation at 10 uM measured after 24 hrs by Hoechst 33342 staining based assay; assay type: functional, cell-based
NCI-H460 [28] = experiment: Induction of apoptosis in human NCI-H460 cells assessed as increase in cleaved PARP measured upto 48 hrs by Western blot analysis; assay type: functional, cell-based; details: TDE = time-dependent effect
NCI-H460 [29] = experiment: Induction of apoptosis in human NCI-H460 cells assessed as early apoptotic cells at 10 uM incubated for 24 hrs in presence of FeCl3 by AnnexinV-FITC/propidium iodide staining based flow cytometry (reference value: 1.69%); assay type: functional
NCI-H460 [30] = experiment: Induction of apoptosis in human NCI-H460 cells assessed as increase in Bax at 10 uM measured by Western blot analysis; assay type: functional, cell-based
NCI-H460 [31] = experiment: Induction of apoptosis in human NCI-H460 cells assessed as viable cells at 10 uM incubated for 24 hrs in presence of FeCl3 by AnnexinV-FITC/propidium iodide staining based flow cytometry (reference value: 89.5%); assay type: functional; details: read-out: Activity
NCI-H460 [32] = experiment: Induction of apoptosis in human NCI-H460 cells assessed as decrease in PARP measured upto 48 hrs by Western blot analysis; assay type: functional, cell-based; details: TDE = time-dependent effect
NCI-H460 [33] = experiment: Induction of apoptosis in human NCI-H460 cells assessed as early apoptotic cells at 10 uM incubated for 12 hrs by AnnexinV-FITC/propidium iodide staining based flow cytometry (reference value: 0.74%); assay type: functional
NCI-H460 [34] = experiment: Induction of cell cycle arrest in human NCI-H460 cells assessed as increase in activated gammaH2AX expression at 10 uM after 24 hrs by Western blot analysis; assay type: functional, cell-based
NCI-H460 [35] = experiment: Effect on labile iron pool in human NCI-H460 cells assessed as […] at 10 uM by calcein-AM staining based flow cytometry analysis relative to control; assay type: functional, cell-based
NCI-H460 [36] = experiment: Induction of apoptosis in human NCI-H460 cells assessed as increase in Caspase 3 activity at 10 uM measured by Western blot analysis; assay type: functional, cell-based; details: time <= 48.0 hrs, TDE = time-dependent effect
NCI-H460 [37] = experiment: Upregulation of TfR1 level in human NCI-H460 cells at 10 uM by Western blot analysis; assay type: functional, cell-based
NCI-H460 [38] = experiment: Induction of apoptosis in human NCI-H460 cells assessed as viable cells at 10 uM incubated for 12 hrs by AnnexinV-FITC/propidium iodide staining based flow cytometry (reference value: 90.4%); assay type: functional; details: read-out: Activity
NCI-H460 [39] = experiment: Induction of apoptosis in human NCI-H460 cells assessed as late apoptotic cells at 10 uM incubated for 48 hrs by AnnexinV-FITC/propidium iodide staining based flow cytometry (reference value: 7.54%); assay type: functional
NCI-H460 [40] = experiment: Induction of apoptosis in human NCI-H460 cells assessed as early apoptotic cells at 10 uM incubated for 24 hrs by AnnexinV-FITC/propidium iodide staining based flow cytometry (reference value: 0.74%); assay type: functional
NCI-H460 [41] = experiment: Cytotoxicity against human NCI-H460 cells assessed as reduction in cell viability at 5 uM incubated for 48 hrs by CCK8 assay; assay type: functional, cell-based
NCI-H1299 [42] = experiment: Cytotoxicity against human NCI-H1299 cells assessed as cell viability rescue at 10 uM incubated for 24 hrs in presence of Fecl3 by CCK8 assay; assay type: functional, cell-based
NCI-H460 [43] = experiment: Induction of cell cycle arrest in human NCI-H460 cells assessed as accumulation at sub G0/G1 phase at 10 uM after 24 hrs by flow cytometric analysis (reference value: 64.5%); assay type: functional
NCI-H460 [44] = experiment: Induction of apoptosis in human NCI-H460 cells assessed as early apoptotic cells at 10 uM incubated for 36 hrs by AnnexinV-FITC/propidium iodide staining based flow cytometry (reference value: 0.74%); assay type: functional
NCI-H460 [45] = experiment: Induction of cell cycle arrest in human NCI-H460 cells assessed as accumulation at sub G2/M phase at 10 uM after 12 hrs by flow cytometric analysis (reference value: 9.8%); assay type: functional
NCI-H460 [46] = experiment: Induction of cell cycle arrest in human NCI-H460 cells assessed as accumulation at […] at 10 uM after 24 hrs by flow cytometric analysis (reference value: 25.7%); assay type: functional
NCI-H460 [47] = experiment: Reversal of cell death in human NCI-H460 cells at up to 40 uM measured after 24 hrs by in presence of FeCl3; assay type: functional, cell-based

O=C(O)c1ccc(-n2nc(-c3ccccc3O)nc2-c2ccccc2O)cc1 [DEFERASIROX]
IC50 (NCI-H460 [1]): 98.4 µM
IC50 (NCI-H460 [2]): 20.4 µM

CC[C@H]1Oc2ccn(O)c(=O)c2[C@H]2[C@H](C)C[C@H](C)C[C@]12C
Activity (NCI-H1299 [3]): Active
Activity (HEK-293T): Toxic
Activity (NCI-H460 [4]): inactive
Activity (NCI-H460 [5]): 71.8%
Activity (NCI-H460 [6]): Active
Activity (NCI-H460 [7]): 1.7%
Activity (NCI-H460 [8]): 15.7%
viability at 10 µM (NCI-H460 [9]): 75.6%
Activity (NCI-H460 [10]): Active
Activity (NCI-H226 [11]): inactive
Activity (NCI-H460 [12]): 4.43%
Activity (NCI-H460 [13]): Active
Activity (NCI-H226 [14]): Active
viability at 10 µM (NCI-H460 [15]): 34.2%
Activity (NCI-H460 [16]): 9.5%
Activity (MRC5): Toxic
viability at 10 µM (NCI-H460 [17]): 56.1%
Activity (NCI-H460 [18]): 0.8%
Activity (NCI-H460 [19]): 4.51%
Activity (NCI-H460 [20]): Active
Activity (NCI-H460 [21]): 35.7%
Activity (NCI-H460 [22]): 25.9%
Activity (NCI-H460 [23]): 2.44%
Activity (NCI-H460 [24]): 3.4%
Activity (NCI-H460 [25]): 1.01%
Activity (NCI-H460 [26]): 3.92%
Activity (NCI-H460 [27]): Active
Activity (NCI-H460 [28]): Tde
Activity (NCI-H460 [29]): 0.75%
Activity (NCI-H460 [30]): Active
viability at 10 µM (NCI-H460 [31]): 93.8%
Activity (NCI-H460 [32]): Tde
Activity (NCI-H460 [33]): 2.93%
Activity (NCI-H460 [34]): Active
IC50 (NCI-H460 [1]): 4.94 µM
Activity (NCI-H460 [35]): Active
Activity (NCI-H460 [36]): Tde
Activity (NCI-H460 [37]): Active
viability at 10 µM (NCI-H460 [38]): 86.3%
Activity (NCI-H460 [39]): 57.9%
IC50 (NCI-H460 [2]): 1.76 µM
Activity (NCI-H460 [40]): 6.27%
Activity (NCI-H460 [41]): Dose-dependent effect
Activity (NCI-H1299 [42]): inactive
Activity (NCI-H460 [43]): 73.9%
Activity (NCI-H460 [44]): 4.29%
Activity (NCI-H460 [45]): 2.2%
Activity (NCI-H460 [46]): 26%
Activity (NCI-H460 [47]): Active

CC(=O)O[C@H]1C(=O)[C@@]2(C)[C@H]([C@H](OC(=O)c3ccccc3)[C@]3(O)C[C@H](OC(=O)[C@H](O)[C@@H](NC(=O)c4ccccc4)c4ccccc4)C(C)=C1C3(C)C)[C@]1(OC(C)=O)CO[C@@H]1C[C@@H]2O
Activity (NCI-H460 [4]): inactive
Activity (NCI-H226 [11]): inactive
Activity (NCI-H1299 [42]): inactive
